In ChEMBL document CHEMBL5723583, “Data for DCP probe BAY-9835” (2024):

Experiments:
[1] = target: A disintegrin and metalloproteinase with thrombospondin motifs 7 (Homo sapiens, UniProt Q9UKP4); assay: Biochemical enzymatic FRET assay (hADAMTS7) ( FRET substrate, HiLyteFluor-488 DELSSMVLELRGLRT-K(QXL520)-E-NH2 (custom synthesis by Anaspec) was used.)
[2] = target: A disintegrin and metalloproteinase with thrombospondin motifs 4 (Homo sapiens, UniProt O75173); assay: Biochemical enzymatic FRET assay (hADAMTS4) ( FRET substrate, HiLyteFluor-488 DELSSMVLELRGLRT-K(QXL520)-E-NH2 (custom synthesis by Anaspec) was used.)
A disintegrin and metalloproteinase with thrombospondin motifs 4, sequence (O75173 whole entry): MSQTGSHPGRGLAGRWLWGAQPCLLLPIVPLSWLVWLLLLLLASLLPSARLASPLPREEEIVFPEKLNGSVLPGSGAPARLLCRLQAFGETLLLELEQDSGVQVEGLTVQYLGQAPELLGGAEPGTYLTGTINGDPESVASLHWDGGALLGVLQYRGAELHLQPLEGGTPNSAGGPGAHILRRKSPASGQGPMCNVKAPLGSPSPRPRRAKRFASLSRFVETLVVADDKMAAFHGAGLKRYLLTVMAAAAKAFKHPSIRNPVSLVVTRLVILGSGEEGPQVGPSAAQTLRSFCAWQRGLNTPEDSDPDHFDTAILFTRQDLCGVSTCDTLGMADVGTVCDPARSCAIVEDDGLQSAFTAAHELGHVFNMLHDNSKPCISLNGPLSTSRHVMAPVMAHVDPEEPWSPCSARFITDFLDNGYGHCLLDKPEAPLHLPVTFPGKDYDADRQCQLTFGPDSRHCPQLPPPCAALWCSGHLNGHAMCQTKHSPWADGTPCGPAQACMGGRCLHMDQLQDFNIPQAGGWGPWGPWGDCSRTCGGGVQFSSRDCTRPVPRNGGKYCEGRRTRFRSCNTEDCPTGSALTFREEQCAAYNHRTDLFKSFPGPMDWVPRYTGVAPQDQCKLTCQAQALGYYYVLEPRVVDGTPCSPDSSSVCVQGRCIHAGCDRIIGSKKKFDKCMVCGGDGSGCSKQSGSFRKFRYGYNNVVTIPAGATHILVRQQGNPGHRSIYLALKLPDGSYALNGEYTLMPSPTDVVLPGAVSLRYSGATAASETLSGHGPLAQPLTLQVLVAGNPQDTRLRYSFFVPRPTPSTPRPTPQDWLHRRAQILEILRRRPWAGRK

A disintegrin and metalloproteinase with thrombospondin motifs 7, sequence (Q9UKP4 whole entry): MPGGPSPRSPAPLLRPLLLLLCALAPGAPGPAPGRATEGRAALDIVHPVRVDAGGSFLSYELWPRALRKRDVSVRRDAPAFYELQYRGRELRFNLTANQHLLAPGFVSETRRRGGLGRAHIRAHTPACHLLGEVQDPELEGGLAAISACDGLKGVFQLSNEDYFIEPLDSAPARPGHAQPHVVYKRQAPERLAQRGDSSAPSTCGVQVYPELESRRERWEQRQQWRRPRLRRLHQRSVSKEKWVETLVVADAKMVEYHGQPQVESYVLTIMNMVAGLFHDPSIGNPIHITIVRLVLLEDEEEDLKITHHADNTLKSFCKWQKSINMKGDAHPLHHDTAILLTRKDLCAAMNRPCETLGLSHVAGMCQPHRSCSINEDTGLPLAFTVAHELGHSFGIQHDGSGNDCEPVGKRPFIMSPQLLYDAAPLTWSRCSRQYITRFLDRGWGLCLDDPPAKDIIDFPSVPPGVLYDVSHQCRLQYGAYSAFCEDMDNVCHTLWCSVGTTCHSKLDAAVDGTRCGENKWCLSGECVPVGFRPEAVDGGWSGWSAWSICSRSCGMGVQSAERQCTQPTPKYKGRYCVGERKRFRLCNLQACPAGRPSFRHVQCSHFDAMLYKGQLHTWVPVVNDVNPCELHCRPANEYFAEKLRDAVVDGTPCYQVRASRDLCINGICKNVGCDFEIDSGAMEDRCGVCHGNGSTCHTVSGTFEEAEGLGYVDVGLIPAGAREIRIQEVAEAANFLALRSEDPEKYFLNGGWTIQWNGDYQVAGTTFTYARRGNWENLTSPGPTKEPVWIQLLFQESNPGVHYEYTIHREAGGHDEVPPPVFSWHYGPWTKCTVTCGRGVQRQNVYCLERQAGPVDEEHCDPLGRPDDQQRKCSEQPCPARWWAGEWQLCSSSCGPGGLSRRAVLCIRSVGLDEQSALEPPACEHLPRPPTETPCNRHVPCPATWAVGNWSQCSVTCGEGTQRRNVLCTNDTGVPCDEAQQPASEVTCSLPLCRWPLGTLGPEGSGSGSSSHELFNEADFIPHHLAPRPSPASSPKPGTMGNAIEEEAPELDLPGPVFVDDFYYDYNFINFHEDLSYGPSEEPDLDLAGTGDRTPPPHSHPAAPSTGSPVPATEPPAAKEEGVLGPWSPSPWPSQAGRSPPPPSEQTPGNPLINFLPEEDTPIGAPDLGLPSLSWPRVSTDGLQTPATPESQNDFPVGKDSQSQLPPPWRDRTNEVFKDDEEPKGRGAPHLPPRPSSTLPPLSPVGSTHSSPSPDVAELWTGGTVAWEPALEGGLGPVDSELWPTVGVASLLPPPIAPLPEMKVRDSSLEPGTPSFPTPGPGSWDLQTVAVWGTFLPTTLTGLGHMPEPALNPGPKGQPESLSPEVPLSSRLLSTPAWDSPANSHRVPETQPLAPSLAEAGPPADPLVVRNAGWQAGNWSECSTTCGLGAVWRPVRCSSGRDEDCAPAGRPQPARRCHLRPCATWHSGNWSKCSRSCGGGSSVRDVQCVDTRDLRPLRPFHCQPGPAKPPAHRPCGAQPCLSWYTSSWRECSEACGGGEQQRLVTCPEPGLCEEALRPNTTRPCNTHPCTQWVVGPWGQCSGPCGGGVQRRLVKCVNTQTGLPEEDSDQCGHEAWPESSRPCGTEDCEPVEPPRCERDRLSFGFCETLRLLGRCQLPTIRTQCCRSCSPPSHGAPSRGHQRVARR

- IC50 [1]: 23.4 µM (not active)
- IC50 [2]: > 50 µM (not active)
SMILES: Cn1nccc1[C@@]1(CNC(=O)c2ccc(F)cc2-c2ccc(C(F)(F)F)cc2)NC(=O)NC1=O
